≈ marks a conversion by molar mass, not a printed value.
How the values were obtained:
[1] = tested on: Mycobacterium tuberculosis H37Rv; experiment: Mouse tuberculosis infection model, CFU counts in the lungs after treatment; assay type: in vivo; conditions: female Swiss mice infected i.v. with H37Rv; oral once daily 5 times/week for 4 weeks (day 12-37); necropsy day 41; BDQ 3 mg/kg, Q203 or Cpd X 20 mg/kg, PZA 150 mg/kg; cut off 1.10 = below detectable level
[2] = assay type: physicochemical
Experimental: All formulations prepared in 20% HP-β-CD, and used for 5 treatments (one week).
All formulations were solutions and stored at 4° C. during the study.
Stability of BDQ and Q203 in formulation was previously tested, for PZA and Cpd X the stability was tested after one week and found acceptable for both compounds

M. tuberculosis = conditions: cited from earlier work
M. tuberculosis H37Rv = conditions: strain M. tuberculosis H37Rv, inside macrophages; cited from earlier work

| Structure (SMILES) | mean log10 (CFUs in the lungs) [1] [log10] | stability in formulation [2] | activity against replicating and non-replicating bacteria (M. tuberculosis) | MIC50 (M. tuberculosis H37Rv) [nM] |
| --- | --- | --- | --- | --- |
| COc1nc2ccc(Br)cc2cc1[C@@H](c1ccccc1)[C@@](O)(CCN(C)C)c1cccc2ccccc12 [BDQ, Bedaquiline] | 4.46 | – | – | – |
| CCc1nc2ccc(Cl)cn2c1C(=O)NCc1ccc(N2CC3(CCN(c4ccc(OC(F)(F)F)cc4)CC3)C2)cc1 [Cpd X] | 4.75 | acceptable | – | – |
| NC(=O)c1cnccn1 [PZA, Pyrazinamide] | 3.47 | acceptable | – | – |
| CCc1nc2ccc(Cl)cn2c1C(=O)NCc1ccc(N2CCC(c3ccc(OC(F)(F)F)cc3)CC2)cc1 [Q203] | 4.55 | – | highly active | 0.28 (≈ 0.156 ng/mL) |
